In patent US8188218B2, “Bi-functional peptides for multiple sclerosis treatment and diagnosis” (priority 2006, dated 2012):
Where two headings read alike, the source gives them in different places. Numbered stars: 1 amine (or outer) side, 2 acyl side, 3 side chain; on linkers, the order of the positions; unused ones are H or OH. Square brackets hold non-standard residues; d marks the D form. Ends that are not written are not given here. Peptide text beside a SMILES is read from it. Eb = biotinyl-PEG-Glu: N-γ-(N-biotinyl-3-(2-(2-(3-aminopropyloxy)-ethoxy)-ethoxy)-propyl)-L-glutamine, O=C(CCCC[C@@H]1SC[C@@H]2NC(=O)N[C@@H]21)NCCCOCCOCCOCCCNC(=O)CC[C@H](N[*:1])C(=O)[*:2]; Ahx = NCCCCCC(=O)O

Legend:
[1] = test system: EAE mouse model (SJL/J female mice immunized with PLP/CFA); type: in vivo; conditions: for number of animals that died, Day 10 / number of animals that died, Day 11 / number of animals that died, Day 14 / number of animals that died, Total: 10 mice/group; for toxicity (conclusion from mortality, in words): mouse, in vivo
Experimental: To evaluate the in vivo activity of these molecules, SJL/J female mice at 6-8 weeks of age (Jackson Laboratory, Bar Harbor, Me.) were divided into six groups with ten mice in each group. At the initiation state (Day 0), all mice (10/group) were immunized by subcutaneous (s.c.) inoculation with 200 μg of PLP in a 0.2 mL emulsion with equal volumes of phosphate buffered saline (“PBS”) and complete Freund's adjuvant (“CFA”) (Difco, Detroit, Mich.). To enhance immunization with antigen, killed Mycobacterium tuberculosis strain H37RA (Difco) was added to the emulsion at a concentration of 4 mg/mL and administered to regions above the shoulder and the flanks. The injection volume was 50 μL at each injection site. In addition, 200 ng of pertussis toxin (List Biological Laboratories, Campbell, Calif.) was injected intraperitoneally (i.p.) on the day of immunization and 48 hours post-immunization. The onset of disease was on day 8 to day 12 post-immunization. Then, each mouse in Groups 1-4 received intravenous (i.v.) injections of 100 nmole/100 μL of the test peptides (PLP-BPI, PLP139-151, OVA-BPI, LABL) on days 4, 7, 10 and 14. Group 5 animals were injected with PBS on days 4, 7, 10 and 14. Group 6 animals received one i.p. injection of 500 μg PLPL,R on day 7.
All of the immunized mice were scored blindly 5-6 days/week by the same observer. Mean daily clinical scores were calculated by adding the grades of each mouse individually divided by the number of mice in each group. All animals were observed daily and, upon signs of paralysis and weakness, gel food and Napa nectar were provided to the animals to prevent dehydration. Saline was injected (s.c.) if a weight loss of 10% was observed within a 24-hour period. Body weight and disease scoring started at the onset of the disease (day 8). The measurements were continued daily (5 to 6 days/week) until the end of the disease.
The statistical analyses of the EAE scores and EAE incidence were done using Mann-Whitney U test and Kaplan-Meier analysis, respectively. The comparison was done between the peptide-treated mice (Groups 1, 2, 3, 4, and 6) and the control group (Group 5) at day 14 post-immunization.

[2] = test system: PLP/CFA-immunized female SJL/J mice; assay: Anaphylaxis incidence after injection of the peptide at later phase of disease; type: in vivo, mouse
Description: The less incidence of inducing anaphylactic shock by BPI molecules was further examined. Female SJL/J mice were immunized with PLP/CFA as above, and injected intravenously with PLP or BPI molecules (100 nmol/mouse) at later phase of the disease (i.e., between day 28 and day 35). […] This was confirmed in another set of experiment, PLP-BPI induced anaphylaxis to 38.5% of treated mice while PLP caused anaphylaxis to more than 80% of treated mice (Table 9, Experiment II). In addition, 100% of mice that were injected with unlinked mixture of PLP and LABL (100 nmol each) died due to anaphylaxis. […] Taken together, BPI molecules (including PLP-BPI and Ac-PLP-BPI-NH2) could suppress EAE more efficiently with lower incidence of inducing anaphylaxis than PLP.

PLP/CFA-immunized mice = assay: Anaphylaxis incidence after re-injection of the peptide at day 30
Description: In this example, the ability of BPI molecules to induce anaphylaxis after multiple injections was investigated.

LS102.9 mouse B-cells = assay: Binding of biotin-labeled PLP-BPI to B-cell line, flow cytometry; type: cell-based; conditions: 50 μM, 16 hours at 37° C.; FIG. 11(A)
Description: (each step was followed by washing×3). […] The results are illustrated in FIG. 11.

[3] = test system: T-cell-depleted splenocytes isolated from SJL/J female mice (EAE-induced); conditions: 50 μM, 16 hours at 37° C.; FIG. 11(B)
Description: Binding studies were done using mouse B-lymphocyte line LS102.9 (FIG. 11(A)) and the isolated B-cells from the spleen of female SJL/J mice after induction of EAE (FIG. 11(B)). […] For the isolated spleen cells from EAE mice, the cells were isolated from female SJL/J mice on day 45 post immunization with PLP/CFA, when the clinical disease score for the mice was 0. Lymphocytes were obtained from the spleen cell suspension by centrifugation over Lymphocyte Separation Medium. T-cells were depleted by incubation with anti-CD90 mAb (clone G7) followed by Low-tox rabbit complement. Then, the cells were centrifuged over Lymphocyte Separation Medium to remove dead cells.
For the binding study, the biotin-labeled peptide (50 μM) was incubated with LS102.9 cells or T-cell-depleted splenocytes (2×10^6 cells) in 0.5% BSA-containing PBS for 16 hours at 37° C., 5% CO2. Following washing×3 with 5% FBS-containing PBS, the cells were incubated with fluorescein Avidin D (15 μg/ml) for 30 min at 4° C. The cells were further stained with biotinylated anti-Avidin D (1 μg/ml) for 60 min at 4° C., and then fluorescein Avidin D (15 μg/ml) for 30 min at 4° C. (each step was followed by washing×3). Finally, the fluorescein intensity of the individual cells was analyzed by flow cytometry.

EAE mouse model = assay: EAE mouse model, PLP-BPI vs mixture of PLP and LABL and VP2-BPI (Example 4); type: in vivo
Description: To evaluate whether linking PLP and LABL peptides to give PLP-BPI has a significant role on its immunomodulatory activity, the activity of PLP-BPI was compared with that of a mixture of unlinked PLP and LABL peptides at the same concentration. To answer whether any antigenic peptide such as VP2 peptide that is linked to LABL peptide to give VP2-BPI will have immunomodulatory activity similar to that of PLP-BPI, we evaluated the activity of VP2-BPI in the same experiment. VP274-86 is an epitope peptide of Theiler's encephalomyelitis virus capsid protein VP2, and is known to bind to I-A^s. PBS-treated mice were used as the negative control. The experimental protocol was the same as in the previous study (see FIG. 1). Thus, VP2-BPI was used as a control to example to see if the PLP portion of the PLP-BPI is important to therapeutic activity.

[4] = Experiment I, 100 nmol/mouse i.v. between day 28 and day 35
[5] = Experiment II, 100 nmol/mouse i.v. (mixture 100 nmol each)
[6] = peptide treatment day 4 (one), re-injection day 30
[7] = peptide treatment day 4, 7, 10, 14 (four), re-injection day 30
[8] = Experiment III, 100 nmol/mouse i.v.

Compound: CC[C@H](C)[C@H](NC(=O)CCCCCNC(=O)CNC(=O)CCCCCNC(=O)CNC(=O)CCCCCNC(=O)[C@H](Cc1ccccc1)NC(=O)[C@H](CCCCN)NC(=O)[C@H](CC(=O)O)NC(=O)[C@@H]1CCCN1C(=O)[C@H](Cc1c[nH]cn1)NC(=O)CNC(=O)[C@H](CC(C)C)NC(=O)[C@H](Cc1c[nH]c2ccccc12)NC(=O)[C@H](CCCCN)NC(=O)CNC(=O)[C@H](CC(C)C)NC(=O)[C@H](CO)NC(=O)[C@@H](N)Cc1c[nH]cn1)C(=O)N[C@H](C(=O)N[C@@H](CC(=O)O)C(=O)NCC(=O)N[C@@H](CCC(=O)O)C(=O)N[C@@H](C)C(=O)N[C@H](C(=O)N[C@@H](CC(=O)O)C(=O)N[C@@H](CO)C(=O)NCC(=O)O)[C@@H](C)O)[C@@H](C)O [PLP-BPI, HSLGKWLGHPDKF-AcGAcGAc-ITDGEATDSG]
- number of animals that died, Day 10 [1]: 0
- number of animals that died, Day 11 [1]: 0
- number of animals that died, Day 14 [1]: 0
- toxicity (conclusion from mortality, in words) [1]: low toxicity
- Incidence of anaphylaxis [2, 4]: 35.7%
- Incidence of anaphylaxis (animals/total) [2, 4]: 5/14
- Incidence of anaphylaxis [2, 5]: 38.5%
- Incidence of anaphylaxis (animals/total) [2, 5]: 5/13
- Moribund or death (PLP/CFA-immunized mice; [6]): 3/6
- Moribund or death (PLP/CFA-immunized mice; [7]): 1/6

Compound: CC(C)C[C@H](NC(=O)[C@H](Cc1c[nH]c2ccccc12)NC(=O)[C@H](CCCCN)NC(=O)CNC(=O)[C@H](CC(C)C)NC(=O)[C@H](CO)NC(=O)[C@@H](N)Cc1c[nH]cn1)C(=O)NCC(=O)N[C@@H](Cc1c[nH]cn1)C(=O)N1CCC[C@H]1C(=O)N[C@@H](CC(=O)O)C(=O)N[C@@H](CCCCN)C(=O)N[C@@H](Cc1ccccc1)C(=O)O [PLP, HSLGKWLGHPDKF]
- number of animals that died, Day 10 [1]: 0
- number of animals that died, Day 11 [1]: 0
- number of animals that died, Day 14 [1]: 0
- number of animals that died, Total [1]: no animals died
- number of animals that died, Total ([1]; listed as PLP139-151): 0
- Incidence of anaphylaxis [2, 4]: 75.0%
- Incidence of anaphylaxis (animals/total) [2, 4]: 9/12
- Incidence of anaphylaxis (animals/total) [2, 5]: 11/13
- Incidence of anaphylaxis [2, 8]: 76.5%
- Incidence of anaphylaxis (animals/total) [2, 8]: 13/17
- Moribund or death (PLP/CFA-immunized mice; peptide treatment None (PBS) day 4, 7, 10, 14, peptide injection day 30): 3/4

Compound: CC[C@H](C)[C@H](N)C(=O)N[C@H](C(=O)N[C@@H](CC(=O)O)C(=O)NCC(=O)N[C@@H](CCC(=O)O)C(=O)N[C@@H](C)C(=O)N[C@H](C(=O)N[C@@H](CC(=O)O)C(=O)N[C@@H](CO)C(=O)NCC(=O)O)[C@@H](C)O)[C@@H](C)O [LABL, ITDGEATDSG]
- number of animals that died, Day 10 [1]: 3
- number of animals that died, Day 11 [1]: 1
- number of animals that died, Day 14 [1]: 0

Compound: CC(C)C[C@H](NC(=O)[C@H](CC(C)C)NC(=O)[C@H](CCCCN)NC(=O)CNC(=O)[C@H](CC(C)C)NC(=O)[C@H](CO)NC(=O)[C@@H](N)Cc1c[nH]cn1)C(=O)NCC(=O)N[C@@H](CCCNC(=N)N)C(=O)N1CCC[C@H]1C(=O)N[C@@H](CC(=O)O)C(=O)N[C@@H](CCCCN)C(=O)N[C@@H](Cc1ccccc1)C(=O)O [PLPL,R, HSLGKLLGRPDKF] (H-HSLGKLLGRPDKF-OH)
- number of animals that died, Day 10 [1]: 0
- number of animals that died, Day 11 [1]: 5
- number of animals that died, Day 14 [1]: 1
- toxicity (conclusion from mortality, in words) [1]: severe effect (toxicity)

Compound: EbHSLGKWLGHPDKF-AcGAcGAc-ITDGEATDSG ([Eb]HSLGKWLGHPDKF[Ahx]G[Ahx]G[Ahx]ITDGEATDSG) [B-PLP-BPI]
- binding to LS102.9 B-cell line (in words) (LS102.9 mouse B-cells): binds to LS102.9 B-cell line
- binding to B-cells from the spleen of EAE-induced mice (in words) [3]: can also bind to the B-cells from the spleen of EAE-induced mice

Compound: CC[C@H](C)[C@H](NC(=O)CCCCCNC(=O)CNC(=O)CCCCCNC(=O)CNC(=O)CCCCCNC(=O)[C@H](C)NC(=O)[C@H](CCC(=O)O)NC(=O)[C@H](CC(N)=O)NC(=O)[C@@H](NC(=O)[C@H](CCC(=O)O)NC(=O)[C@H](C)NC(=O)[C@H](Cc1c[nH]cn1)NC(=O)[C@H](C)NC(=O)[C@H](C)NC(=O)[C@H](Cc1c[nH]cn1)NC(=O)[C@@H](NC(=O)[C@H](C)N)C(C)C)[C@@H](C)CC)C(=O)N[C@H](C(=O)N[C@@H](CC(=O)O)C(=O)NCC(=O)N[C@@H](CCC(=O)O)C(=O)N[C@@H](C)C(=O)N[C@H](C(=O)N[C@@H](CC(=O)O)C(=O)N[C@@H](CO)C(=O)NCC(=O)O)[C@@H](C)O)[C@@H](C)O [OVA-BPI, AVHAAHAEINEA-AcGAcGAc-ITDGEATDSG]
- number of animals that died, Day 10 [1]: 0
- number of animals that died, Day 11 [1]: 0
- number of animals that died, Day 14 [1]: 2
- number of animals that died, Total [1]: 2

Compound: CC[C@H](C)[C@H](NC(=O)CCCCCNC(=O)CNC(=O)CCCCCNC(=O)CNC(=O)CCCCCNC(=O)[C@H](Cc1ccccc1)NC(=O)[C@H](CCCCN)NC(=O)[C@H](CC(=O)O)NC(=O)[C@@H]1CCCN1C(=O)[C@H](Cc1c[nH]cn1)NC(=O)CNC(=O)[C@H](CC(C)C)NC(=O)[C@H](Cc1c[nH]c2ccccc12)NC(=O)[C@H](CCCCN)NC(=O)CNC(=O)[C@H](CC(C)C)NC(=O)[C@H](CO)NC(=O)[C@H](Cc1c[nH]cn1)NC(C)=O)C(=O)N[C@H](C(=O)N[C@@H](CC(=O)O)C(=O)NCC(=O)N[C@@H](CCC(=O)O)C(=O)N[C@@H](C)C(=O)N[C@H](C(=O)N[C@@H](CC(=O)O)C(=O)N[C@@H](CO)C(=O)NCC(N)=O)[C@@H](C)O)[C@@H](C)O [Ac-PLP-BPI-NH2, Ac-HSLGKWLGHPDKF)-AcGAcGAc-ITDGEATDSG-NH2]
- Incidence of anaphylaxis [2, 8]: 43.8%
- Incidence of anaphylaxis (animals/total) [2, 8]: 7/16
- Moribund or death (PLP/CFA-immunized mice; [6]): 2/6
- Moribund or death (PLP/CFA-immunized mice; [7]): 1/6

Compound: QEAFSHIRIPLPH-AcGAcGAc-ITDGEATDSG (QEAFSHIRIPLPH[Ahx]G[Ahx]G[Ahx]ITDGEATDSG; listed as Homo sapiens) [VP2-BPI]
- disease incidence (EAE mouse model; after day 17, FIG. 8(B)): 100%
- loss of body weight (in words) (EAE mouse model; around day 14, FIG. 8(C)): greatest in PBS-treated mice followed by VP2-BPI-treated mice
